The values below are quoted from earlier work in patent US20090196894A1, “Self Tanning Composition” (priority 2006, published 2009).

For this data set the following is noted: over the entire pH range, among the investigated hydroxyflavones.

In the case of `O=c1c(O)c(-c2ccc(O)c(O)c2)oc2cc(O)cc(O)c12` [quercetin, 3,3′,4′,5,7-pentahydrooxyflavone], the antioxidative effect entry was “highest activity”.
